Data taken from publication PMC9866728, “Dosing Methods to Enable Cell-Based In Vitro Testing of Complex Substances: A Case Study with a PAH Mixture” (Toxics, 2022).
Where “and” joins values, the source holds several entries; their conditions need not be identical. Identical values can stand only once. Like-named read-outs stand apart in the source and are kept apart here.

Assays:
[1] = Loading kinetics of silicone micro-O-rings from methanol PAH solution (GC-MS/MS); assay type: physicochemical
[2] = Recovery over time from exposure to cell culture media without cells (GC-MS/MS); assay type: physicochemical
[3] = Table S1; ref PubChem; cited from earlier work
[4] = O-ring loading rate constant, larger O-rings; ref Smith et al. 2010 [24]; cited from earlier work
[5] = Smith et al. O-Rings; ref Smith et al. 2010 [24]; cited from earlier work
[6] = loading rate constant, one-phase association (h^-1), 10 µg/mL PAH mix in methanol
[7] = one-phase association fit of nominal Csilicone (µg/mL per Eq 1), 10 µg/mL PAH mix in methanol
[8] = one-phase association fit of nominal Csilicone, 10 µg/mL PAH mix in methanol, 0-24 h
[9] = one-phase association fit, micro-O-ring absorption
[10] = MAF (400 ng/mL each PAH), one phase decay fit of nominal recovery
[11] = MAF (400 ng/mL each PAH), one phase decay fit of nominal recovery (text: ng/mL)
[12] = O-Rings (loaded in 10 µg/mL PAH solution), one phase association fit of nominal recovery
[13] = O-Rings, one phase association fit
[14] = O-Rings, one phase association fit (desorption into media)
[15] = Solvent Extract (DMSO, 15 ng/mL each PAH), one phase decay fit of nominal recovery
[16] = Solvent Extract (DMSO, 15 ng/mL each PAH), one phase decay fit of nominal recovery (text: ng/mL)
[17] = Solvent Extract, one phase decay fit

Structure (SMILES)	K Value [1, 6]	Plateau Value [1, 7]	Y0 [1, 8]	Half-time Value [1, 9]	Span Value [1, 9]	Tau Value [1, 9]	Y0 [2, 10]	Plateau [2, 11]	K ([2]; MAF, one phase decay fit)	Span ([2]; MAF, one phase decay fit)	Tau ([2]; MAF, one phase decay fit)	Plateau [2, 12]	Half-time Value [1]	K Value [1]	Plateau Value [1]	Span Value [1]	Tau Value [1]	Y0 [1]	Half-time [2]	Smith et al. 2010 K Value [4]	also measured
Cc1cccc2ccccc12 [1-Methylnaphthalene]	26.6865	0.8912	0	0.02597	0.8912	0.03747	399.6	37.1	1.206	362.5	0.8293	1.035									best-fit rate constants (micro-O-ring loading) ([1]; loading from methanol solution): 26.7 h⁻¹; Y0 [2, 12]: -0.0496; Half-time [2, 13]: 1.691; Span [2, 13]: 1.085; Tau [2, 13]: 2.439; K [2, 14]: 0.41; Y0 [2, 15]: 14.94; Plateau [2, 16]: 2.307; K [2, 17]: 0.9085; Span [2, 17]: 12.63; Tau [2, 17]: 1.101; LogKow (PubChem) [3]: 3.87
Cc1ccc2ccccc2c1 [2-Methylnaphthalene]													0.02597	26.6855	0.8914	0.8914	0.03747	0	0.5872		best-fit rate constants (micro-O-ring loading) [1]: 26.7 h⁻¹; K [2]: 1.206 and 1.18 and 0.9072; Tau [2]: 0.8294 and 0.8472 and 1.102
c1cc2c3c(cccc3c1)CC2 [Acenaphthene]	22.38	0.8224	0	0.03097	0.8224	0.04468	398.6	44.72	0.9374	353.9	1.067	0.8203								1.8	Y0 [2, 12]: -0.03588; Half-time [2, 13]: 2.678; Span [2, 13]: 0.8562; Tau [2, 13]: 3.863; K [2, 14]: 0.2589; Y0 [2, 15]: 14.88; Plateau [2, 16]: 2.58; K [2, 17]: 0.7259; Span [2, 17]: 12.3; Tau [2, 17]: 1.378; LogKow (PubChem) [3]: 3.92
C1=Cc2cccc3cccc1c23 [Acenaphthylene]	22.7382	0.6656	0	0.03048	0.6656	0.04398	399.1	41.99	1.016	357.1	0.9842	0.6692									Y0 [2, 12]: -0.08033; Half-time [2, 13]: 0.6114; Span [2, 13]: 0.7495; Tau [2, 13]: 0.882; K [2, 14]: 1.134; Y0 [2, 15]: 14.88; Plateau [2, 16]: 2.66; K [2, 17]: 0.7341; Span [2, 17]: 12.22; Tau [2, 17]: 1.362
c1ccc2cc3ccccc3cc2c1 [Anthracene]	27.2512	0.255	0	0.02544	0.255	0.0367	398.5	49.04	0.9206	349.4	1.086	0.3725								1.82	Y0 [2, 12]: -0.1844; Half-time [2, 13]: 0.1723; Span [2, 13]: 0.5569; Tau [2, 13]: 0.2486; K [2, 14]: 4.022; Y0 [2, 15]: 14.66; Plateau [2, 16]: 2.703; K [2, 17]: 0.5624; Span [2, 17]: 11.96; Tau [2, 17]: 1.778; K [5]: 2.3; LogKow (PubChem) [3]: 4.45
c1ccc2cc3c(ccc4ccccc43)cc2c1 [Benzo[a]anthracene]													4.451	0.1557	0.1684	0.1684	6.421	0	2.255	1.38	
c1ccc2c(c1)cc1ccc3cccc4ccc2c1c34 [Benzo[a]pyrene]	33.8629	0.1047	0	0.02047	0.1047	0.02953	391.4	203.9	0.5026	187.5	1.989	1.337								1.32	Y0 [2, 12]: 0.02292; Half-time [2, 13]: 1.658; Span [2, 13]: 1.314; Tau [2, 13]: 2.392; K [2, 14]: 0.418; Y0 [2, 15]: 15.28; Plateau [2, 16]: 6.176; K [2, 17]: 0.1275; Span [2, 17]: 9.105; Tau [2, 17]: 7.845; K [5]: 0.57; LogKow (PubChem) [3]: 6.13
c1ccc2c(c1)-c1cccc3c1c-2cc1ccccc13 [Benzo[b]fluoranthene]													0.02358	29.3997	0.1089	0.1089	0.03401	0	1.392		
c1cc2ccc3ccc4ccc5cccc6c(c1)c2c3c4c56 [Benzo[g,h,i]perylene]													0.01297	53.4605	0.06193	0.06193	0.01871	0	1.63		
c1ccc2cc3c(cc2c1)-c1cccc2cccc-3c12 [Benzo[k]fluoranthene]	29.8778	0.1081	0	0.0232	0.1081	0.03347	386	124.5	0.2609	261.5	3.833	0.7223									Y0 [2, 12]: 0.005418; Half-time [2, 13]: 1.391; Span [2, 13]: 0.7169; Tau [2, 13]: 2.006; K [2, 14]: 0.4984; Y0 [2, 15]: 15.74; Plateau [2, 16]: 4.199; K [2, 17]: 0.1008; Span [2, 17]: 11.54; Tau [2, 17]: 9.919; LogKow (PubChem) [3]: 6.11
c1ccc(-c2ccccc2)cc1 [Biphenyl]													0.02096	33.0653	0.6997	0.6997	0.03024	0	0.591		K [2]: 1.298 and 1.173 and 1.091; Tau [2]: 0.7703 and 0.8527 and 0.917
c1ccc2c(c1)ccc1c3ccccc3ccc21 [Chrysene]													4.881	0.142	0.1581	0.1581	7.042	0	77098	1.37	
c1ccc2c(c1)ccc1cc3c(ccc4ccccc43)cc12 [Dibenzo[a,h]anthracene]													3.094e-6		0.033	0.033	4.463e-6	0	1.539	1.1	
c1ccc2c(c1)-c1ccc3ccc4cccc5cc-2c1c3c45 [Indeno[1,2,3-cd]pyrene]													0.01649	42.0316	0.0758	0.0758	0.02379	0	2.714		
c1ccc2ccccc2c1 [Naphthalene]	33.9576	0.7013	0	0.02041	0.7013	0.02945	399.7	38.47	1.287	361.2	0.7773	1.084								2.38	Y0 [2, 12]: -0.1564; Half-time [2, 13]: 0.378; Span [2, 13]: 1.24; Tau [2, 13]: 0.5454; K [2, 14]: 1.834; Y0 [2, 15]: 14.8; Plateau [2, 16]: 3.339; K [2, 17]: 0.6384; Span [2, 17]: 11.46; Tau [2, 17]: 1.566; K [5]: 3.55
c1cc2cccc3c4cccc5cccc(c(c1)c23)c54 [Perylene]													0.02047	33.856	0.1047	0.1047	0.02954	0	1.656		
c1cc2ccc3cccc4ccc(c1)c2c34 [Pyrene]													0.03121	22.209	0.4017	0.4017	0.04503	0	0.6521	1.35	K [5]: 1.04
